Measured values: publication PMC8999625, “Antiviral Effects of ABMA and DABMA against Influenza Virus In Vitro and In Vivo via Regulating the Endolysosomal Pathway and Autophagy” (International Journal of Molecular Sciences, 2022)
Entries after “also recorded” stand apart in the source; their conditions may differ. Where a name gives a salt, the structure may show the parent alone.

The compounds below were run on A/HK/2671/2019 (H3N2). Conditions: not given.
Type: cell-based, influenza virus

Row | Compound | antiviral activity against A/HK/2671/2019 (H3N2)
1 | NC12CC3CC(CC(C3)C1)C2 [Amantadine, Amantadine hydrochloride] | did not show antiviral activity; also recorded: no significant protection

Same assay, conditions: read-out: EC50 ± SD A/HK/2671/2019 (H3N2)

Row | Compound | EC50
2 | NC12CC3CC(CC(C3)C1)C2 [Amantadine, Amantadine hydrochloride] | > 100000 nM
3 | CCOC(=O)C1=C[C@@H](OC(CC)CC)[C@H](NC(C)=O)[C@@H](N)C1 [Oseltamivir, Oseltamivir phosphate] | 1790 ± 640 nM
4 | COc1ccc(Br)cc1CNC12CC3CC(CC(C3)C1)C2 [ABMA, 1-adamantyl (5-bromo-2-methoxybenzyl) amine] | 2830 ± 260 nM
5 | COc1ccc(Br)cc1CNC12CC3CC(C)(CC(C)(C3)C1)C2 [DABMA, 1,3-dimethyl-1-adamantyl (5-bromo-2-methoxybenzyl) amine] | 2950 ± 270 nM
6 | NC(=O)c1ncn([C@@H]2O[C@H](CO)[C@@H](O)[C@H]2O)n1 [Ribavirin, ribavirin] | 19800 ± 3260 nM
